# Experiments:
# [1] = target: T1, hERG (Homo sapiens, UniProt Q12809); experiment: Secondary pharmacology binding panel (Millipore & Cerep); details: at 10 µM
# T1 construct: Millipore & Cerep (outsourced panels)
# Text: As pharmacological properties regarding selectivity are crucial for the development of ENaC inhibitors, we first assessed the properties of AZD5634 through a standard battery of assessments.
# [2] = tested on: healthy sheep; experiment: Mucociliary clearance (99mTc-sulfur colloid) in healthy sheep after nebulized drug; format: in vivo
# Text: Twenty-one adult female Florida native sheep (37–54 kg, Fair Meadow Sheep) were used in the present study, once or twice with a washout of at least 1 wk between experiments. Animals were restrained in an upright position in a specialized body harness in modified carts. The head of the animal was immobilized, and after local anesthesia of the nasal passage was induced with 2% lidocaine, the animals were nasally intubated with a standard endotracheal tube (7.5 mm diameter, Mallinckrodt, St. Louis, MO). A flexible bronchoscope was used to guide the tube and verify its position in the trachea. After intubation, the animals were allowed to rest for ∼20 min before administration of any agent.
# Nebulized drug or placebo was given as an aerosol where 3 mL volume (compound in 10% EtOH:90% saline) was delivered at a tidal volume of 300 mL. To maximize central deposition in the airways, a dosimeter was used to deliver the compound. The nebulizer was connected to the dosimeter system consisting of a solenoid valve and a source of compressed air (20 psi). The output of the nebulizer was connected to a T-piece, with one end attached to a respirator (Harvard Apparatus Inc., Holliston, MA). The system was activated for 1 s at the onset of the inspiratory cycle of the respirator, which was set at an inspiratory/expiratory ratio of 1:1 and a rate of 20 breaths/min. To evaluate the effect of repeated dosing, AZD5634 was given twice daily for 4 days and MCC was measured 8 h after the 7th dose.
# MCC rate was measured by means of aerosolized technetium-labeled sulfur colloid (^99mTC-SC) and nebulized via the same dosimeter system as for the drug administration. […] Aerosol ^99mTC-SC was generated using an Air Life nebulizer (CareFusion, Yorba Linda, CA). Approximately 20 mCi of ^99mTC-SC in a total of 2 mL of sterile saline was placed in the nebulizer. A tidal volume of 500 mL was used to deliver the ^99mTC-SC over 3 min.
# Blood was kept on ice until centrifuged (4,000 g, 5 min, 4°C) and plasma (approximately 2 mL) was transferred to two Eppendorf tubes per sample and frozen at −20°C until analyzed. Sodium and potassium concentrations were analyzed at Mount Sinai Medical Center immediately after sampling and before centrifugation (IRMA TruPoint Analysis System). The plasma samples for analysis of drug concentration were shipped on dry ice to AstraZeneca R&D, Mölndal, Gothenburg and analyzed by means of LC-MSMS (001–04 Method for Blood Plasma Analysis).
# Rat electrolyte data were analyzed by means of repeated-measures ANCOVA (SAS v.9).
# [3] = tested on: F508del-homozygous HBEC cultures; experiment: μOCT imaging of ASL depth, MCT rate and CBF in F508del-homozygous CF HBEC cultures; format: cell-based, human; details: AZD5634 1 µM apical
# Protocol: Using previously described techniques ([2], [37]), epithelial cells were harvested from excised lung tissue derived from CF donors homozygous for F508del CFTR, expanded, and grown until confluency was attained. The cells were then seeded on 6.5-mm-diameter, 24-well Transwell permeable membrane supports coated with NIH 3T3 fibroblast unconditioned media (0.5 × 10^6 cells/filter; Corning Inc., Corning, NY) and further allowed to mature in differentiating media (PneumaCult ALI, […] Technologies, Cambridge, MA) for a minimum of 4–5 wk until fully differentiated. To stimulate fresh mucus secretion and formation of an even ASL layer, the cells were washed 48–72 h before experimentation with PneumaCult ALI media (80 µL), added apically, and then aspirated following 30–45 min incubation at 37°C. The washing process was repeated with a 15-min incubation period and the mucus layer was allowed to reestablish, after which the cells were treated with 1 µL of AZD5634 (1 µM, apical), alone and in combination with lumacaftor and ivacaftor (luma/iva; 3 µM/10 µM, basolateral). PBS (1% DMSO, apical) served as a vehicle control. […] Only passage 1 and 2 monolayers were used for these studies.
# μOCT imaging and analysis were conducted in vitro and ex vivo as detailed in previous publications ([2], [39]–[41]). […] Following imaging of HBEC cultures and of excised trachea and lungs, images were assessed to obtain quantitative measurements of mucociliary transport (MCT) rate, ASL depth, and ciliary beat frequency (CBF). MCT rates were calculated by analyzing the distance traveled by native particles in the mucus layer over time across multiple frames. […] CBF was determined by using custom code developed in Matlab (Mathworks, Natick, MA) to quantify the reflectance of beating cilia by Fourier analysis. […]
# Descriptive statistics were calculated and means compared using unpaired or paired t tests, or ANOVA, with post hoc analyses conducted for multiple comparisons where appropriate. […]
# [4] = tested on: amiloride-sensitive potential difference; design: method as in PMID 35227647; details: perfused to the nasal surface, people with CF; cited from earlier work
# [5] = tested on: people with CF; design: method as in PMID 35227647; details: single-dose inhalation, NCT02950805; cited from earlier work
# T1 sequence (Q12809 whole entry): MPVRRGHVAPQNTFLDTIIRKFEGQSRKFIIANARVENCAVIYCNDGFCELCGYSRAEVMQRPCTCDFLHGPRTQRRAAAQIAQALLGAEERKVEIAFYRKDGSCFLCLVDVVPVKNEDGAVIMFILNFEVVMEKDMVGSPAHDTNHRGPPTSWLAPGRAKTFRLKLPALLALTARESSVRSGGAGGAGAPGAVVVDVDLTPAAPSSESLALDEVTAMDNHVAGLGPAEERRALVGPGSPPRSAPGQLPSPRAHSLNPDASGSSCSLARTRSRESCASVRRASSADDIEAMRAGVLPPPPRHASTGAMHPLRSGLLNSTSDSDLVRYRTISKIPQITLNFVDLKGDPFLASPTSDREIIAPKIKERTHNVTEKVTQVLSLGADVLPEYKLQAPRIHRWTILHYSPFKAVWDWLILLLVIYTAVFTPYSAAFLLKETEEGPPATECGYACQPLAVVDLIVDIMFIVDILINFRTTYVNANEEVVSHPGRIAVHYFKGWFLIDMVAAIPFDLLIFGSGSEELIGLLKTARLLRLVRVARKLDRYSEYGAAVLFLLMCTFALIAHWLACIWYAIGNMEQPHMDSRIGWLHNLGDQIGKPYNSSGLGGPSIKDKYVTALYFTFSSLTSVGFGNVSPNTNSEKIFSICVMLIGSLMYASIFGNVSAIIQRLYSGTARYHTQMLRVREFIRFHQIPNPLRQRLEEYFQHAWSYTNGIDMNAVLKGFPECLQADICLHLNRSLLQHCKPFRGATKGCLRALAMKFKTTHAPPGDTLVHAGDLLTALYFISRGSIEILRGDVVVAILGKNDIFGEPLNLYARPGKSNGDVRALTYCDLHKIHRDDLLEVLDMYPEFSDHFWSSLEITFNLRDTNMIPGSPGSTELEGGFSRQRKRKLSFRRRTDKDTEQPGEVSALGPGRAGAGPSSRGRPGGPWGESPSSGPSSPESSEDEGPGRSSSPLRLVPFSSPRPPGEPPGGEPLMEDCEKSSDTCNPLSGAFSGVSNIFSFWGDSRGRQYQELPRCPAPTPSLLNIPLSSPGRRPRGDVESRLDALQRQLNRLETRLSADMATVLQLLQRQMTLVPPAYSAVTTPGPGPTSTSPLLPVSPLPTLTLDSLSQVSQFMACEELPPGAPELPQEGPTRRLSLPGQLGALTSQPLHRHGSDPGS
substance,measurement,setting,value
AZD5634,hERG inhibition,[1],13%
same,MCC effect after repeated administration,"[2]; 3 μg/kg bid for 4 days (7 doses), MCC 8 h after 7th dose",effect magnitude was maintained compared with single-dose studies
same,duration of MCC effect,"[2]; 12 μg/kg given 0, 4, 8, 12, 24 h before 99mTc","retained for 8 h, with approximately half left at 12 h and another half of the remaining effect gone by 24 h"
same,dose giving max effect on MCC,"[2]; dose-response 1–330 µg/kg, healthy sheep",0.12 mg/kg
same,dose giving max efficacy on MCC,"[2]; dose-response, healthy sheep",0.12 mg/kg
same,effect on MCC,"[2]; nebulized 1–330 µg/kg, given just before 99mTc",dose-dependent effect on MCC
same,peak effect on mucus clearance (augmentation),[2]; normal sheep in vivo,30%
same,ASL depth,"[3]; 6 h, luma/iva 3 µM/10 µM basolateral, absolute values",24.8 ± 3.6 µm
same,CBF,[3]; absolute value,8.6 ± 0.5 Hz
same,MCT rate,"[3]; luma/iva 3 µM/10 µM basolateral, absolute values",2.5 ± 0.5 mm/min
same,effect on amiloride-sensitive nasal potential difference,[4],acutely inhibited amiloride-sensitive potential difference
same,effect on MCC,[5],did not demonstrate augmented MCC

# — paper PMC9602792, “Preclinical evaluation of the epithelial sodium channel inhibitor AZD5634 and implications on human translation” (American Journal of Physiology - Lung Cellular and …, 2022)
